Assay results reported in patent publication US10383905B2, “Extract of Cynara ssp. and uses thereof” (ABOCA S.P.A. SOCIETA' AGRICOLA, priority 2013, dated 2019).

Assays:
[1] = tested on: confluent prostatic adenocarcinoma cell line DU-145; experiment: WST-1 cell vitality assay, confluent DU-145; assay type: cell-based, human
Method: (§1) Cytotoxicity was assayed using the WST assay (WSTs=water soluble tetrazolium salts), and utilises the ability of mitochondrial dehydrogenases to separate the tetrazole ring from the yellow-coloured WST molecule (tetrazolium salt) to give an orange formazan salt. The amount of formazan produced following the treatment of the cells with the substances being tested is measured using spectrophotometry and is proportional to the number of living cells. WST-1 and in particular WST-8 (2-(2-methoxy-4-nitrophenyl)-3-(4-nitrophenyl)-5-(2,4-disulfophenyl)-2H-tetrazolium) are advantageous with respect to MTT because they reduce outside the cells, in combination with PMS as electron mediator, to produce water-soluble formazan.
6.2 WST-1 assay on cell line DU145 at 24 and 48 hours with 0-100-200-300-400-500-600 μg/ml of extract of Cynara scolymus (cynaropicrin=1.361%), which inhibits, in a time-dependent and dose-dependent manner, the vitality of the DU-145 cells.
6.3 WST-1 assay on cell line DU145 at 24 and 48 hours with cynaropicrin 0-10-20-30-40-50-60 μM inhibits, in a dose-dependent and time-dependent manner, the vitality of DU-145 cells.

[2] = tested on: human prostate tumour cell line DU145; experiment: WST-1 vitality assay in association with chemotherapeutic agents; assay type: cell-based
Method: as §1
The assays were carried out in parallel with variable doses of cynaropicrin in place of the extract to compare the efficacy of the extract and that of cynaropicrin.

GSH = experiment: Intracellular analyses of GSH; assay type: cell-based; conditions: 12.5, 25, 50 μM
Method: The intracellular concentration of GSH was evaluated by means of a colorimetric method. The cell extract, deproteinised by means of 10% trichloroacetic acid, was treated with dithio nitrobenzene (DTNB), and the quantity of TNB, which is released following the reaction with GSH, was evaluated by analysing the absorbance at 412 nm.

STAT3 [3] = experiment: Glutathionylation of STAT3; assay type: cell-based; conditions: 12 microM and 25 μM
Method: STAT3 was immunoprecipitated by incubating the protein cell extract overnight with an anti-STAT3 antibody. The proteins obtained were separated by means of SDS-PAGE in non-reducing conditions and were transferred on PVDF membrane. The glutathionylated STAT3 was recognised using an anti-GSH antibody.

STAT3 [4] = experiment: STAT3 phosphorylation after pre-treatment with glutathione ethylene ester; assay type: cell-based
STAT3 [5] = biological target: T1, STAT3 (Homo sapiens, UniProt P40763); experiment: EMSA of STAT3 binding to DNA in KARPAS cells; assay type: cell-based; parameters: endogenous in cells; conditions: read-out: EC50 inhibition of the ability of STAT3 to bind to DNA
STAT3 [6] = biological target: T1, STAT3; experiment: Western Blot of STAT3 phosphorylation in DU-145 cells; assay type: cell-based; parameters: The cell line DU145 expresses pStat3 in a constitutive manner; endogenous in cells; host or cells: DU-145 (human prostate carcinoma, ATCC HTB-81); conditions: read-out: EC50 inhibition of the phosphorylation of STAT3
Method: (§2) The cells were lysed in ice for 30 min in lysis buffer NP40 (50 mM Tris-HCl pH 7.4, 150 mM NaCl, 1% NP-40, 1 mM EGTA, 1 mM EDTA) complemented with inhibitors of protease and phosphatase (5 mM PMSF, 3 mM NaF, 1 mM DTT, 1 mM NaVO4). Equal amounts of total extracts of protein (30 μg) were broken down by means of denaturing electrophoresis (SDS-PAGE) in 8% polyacrylamide gel and transferred for 2 hours on nitrocellulose membrane. The membranes were blocked with a 5% solution of milk dissolved in TBS-Tween_20 0.05% for 1 hour and incubated with the specific primary antibodies. The following primary antibodies were used: anti-beta actin (A-2228, SIGMA), anti-pSTAT3 (Tyr-705) (sc8059, Santa Cruz) and anti-STAT3 (sc7179, Santa Cruz). The secondary antibodies were peroxidase-conjugated (Santa Cruz), and ECL reagents (Amersham, GE Healthcare. Piscataway, N.J., USA) were used for the chemiluminescence.
(§3) 2. The Extract of Cynara scolymus and Cynaropicrin Inhibit the Activation of STAT3 in DU-145 Cells and in KARPAS Cells:
(§4) 200 μg/ml of extract that contains 0.181% of cynaropricrin contain 1.2 μM of cynaropricrin.

STAT3 [7] = biological target: T1, STAT3; experiment: EMSA of STAT3 binding to DNA in DU-145 cells; assay type: cell-based; parameters: The cell line DU145 expresses pStat3 in a constitutive manner; endogenous in cells; host or cells: DU-145 (human prostate carcinoma, ATCC HTB-81); conditions: read-out: EC50 inhibition of the ability of STAT3 to bind to DNA
STAT3 [8] = biological target: T1, STAT3; experiment: Western Blot of STAT3 phosphorylation in KARPAS cells; assay type: cell-based; parameters: The cell line DU145 expresses pStat3 in a constitutive manner; endogenous in cells; host or cells: DU-145 (human prostate carcinoma, ATCC HTB-81); conditions: read-out: EC50 inhibition of the phosphorylation of STAT3
Method: as §2, §3, §4

MSTO211H and NCI-H2052 = experiment: ATPlite vitality assay, extract in association with pemetrexed, MPM lines; assay type: cell-based, human; conditions: MPM cells, 72 h
Method: Cell lines MSTO211H and NCI-H2052 were used to evaluate the effects of the association of extract of Cynara scolymus+anti-tumour drug.
(§5) The assay shown in FIG. 10 was performed using ATPlite™ assay (Perkin Elmer) in accordance with the producer's instructions.
(§6) A solution of water for injectable solutions and ethanol at a concentration of 1:1 was used in the same volumes used for the treatments.
(§7) pemetrexed (Alimta, Lilly) diluted in accordance with the producer's instructions.
(§8) The concentrations of the assayed compound are plotted on the abscissa, whereas the cell vitality expressed in percentage is plotted on the ordinate.

untransformed HMC cells = experiment: ATPlite vitality assay, extract in association with pemetrexed, HMC; assay type: cell-based, human; conditions: non-tumour HMC cells
Method: as §5, §6, §7, §8

T1 sequence (P40763 whole entry): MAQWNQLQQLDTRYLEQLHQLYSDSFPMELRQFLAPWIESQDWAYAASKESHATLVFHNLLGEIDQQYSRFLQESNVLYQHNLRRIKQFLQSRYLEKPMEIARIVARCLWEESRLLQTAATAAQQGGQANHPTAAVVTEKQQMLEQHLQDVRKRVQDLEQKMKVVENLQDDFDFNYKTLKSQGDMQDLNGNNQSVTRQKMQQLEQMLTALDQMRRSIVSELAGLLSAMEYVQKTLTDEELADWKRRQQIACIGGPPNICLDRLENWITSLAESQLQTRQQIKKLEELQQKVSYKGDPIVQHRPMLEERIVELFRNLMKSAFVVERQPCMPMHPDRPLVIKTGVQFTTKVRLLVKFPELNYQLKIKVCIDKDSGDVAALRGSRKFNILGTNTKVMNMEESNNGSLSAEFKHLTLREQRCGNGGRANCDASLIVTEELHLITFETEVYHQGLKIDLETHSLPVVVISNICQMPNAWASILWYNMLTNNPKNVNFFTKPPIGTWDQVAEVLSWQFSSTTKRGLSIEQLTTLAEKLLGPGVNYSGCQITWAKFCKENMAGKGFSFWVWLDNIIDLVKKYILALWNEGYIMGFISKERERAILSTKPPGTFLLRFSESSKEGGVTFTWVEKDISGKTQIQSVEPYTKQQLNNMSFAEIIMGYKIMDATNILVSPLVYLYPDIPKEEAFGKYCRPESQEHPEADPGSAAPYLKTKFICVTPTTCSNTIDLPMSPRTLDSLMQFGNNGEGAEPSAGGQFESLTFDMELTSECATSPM

Row | SMILES | reduction of vitality ([1]; confluent DU-145, 50 μM for 48 hours) | cell vitality ([1]; confluent DU-145, cynaropicrin 0-70 μM, 24 or 48 hours) | molarity of cynaropicrin needed to reduce cell vitality below 20%, relative to that present in the artichoke extract ([2]; DU145, with cisplatinum 15 μg/ml) | molarity of cynaropicrin needed to reduce cell vitality below 20%, relative to that present in the artichoke extract ([2]; DU145, with doxorubicin 2 μg/ml) | intracellular concentration of GSH (GSH) | glutathionylation of STAT3 (STAT3 [3]) | effect of restoration of GSH on inhibition of STAT3 phosphorylation (STAT3 [4]) | EC50 (STAT3 [5]) [µM] | EC50 (STAT3 [6]) [µM] | EC50 (STAT3 [7]) [µM] | EC50 (STAT3 [8]) [µM] | cell vitality, pemetrexed alone (MSTO211H and NCI-H2052) | cell vitality, pemetrexed alone (untransformed HMC cells)
1 | C=C(CO)C(=O)O[C@H]1CC(=C)[C@@H]2C[C@H](O)C(=C)[C@@H]2[C@H]2OC(=O)C(=C)[C@@H]21 [cynaropicrin] | approximately 90% | inhibits cell vitality in a time-dependent and dose-dependent manner | forty times greater | approximately twenty-five times greater | time-dependent and dose-dependent reduction of the intracellular concentration of GSH | determines the glutathionylation of STAT3 | reverses the ability of cynaropicrin to inhibit the phosphorylation of STAT3 | 25 | 25 | 25 | 25 | – | –
2 | Nc1nc2[nH]cc(CCc3ccc(C(=O)N[C@@H](CCC(=O)O)C(=O)O)cc3)c2c(=O)[nH]1 [PMTX, pemetrexed] | – | – | – | – | – | – | – | – | – | – | – | cytotoxic for the MPM cells | highly toxic for the non-tumour cells
